One test addresses T1, Serine protease 1 (Bos taurus, UniProt P00760).
T1 sequence (P00760 whole entry): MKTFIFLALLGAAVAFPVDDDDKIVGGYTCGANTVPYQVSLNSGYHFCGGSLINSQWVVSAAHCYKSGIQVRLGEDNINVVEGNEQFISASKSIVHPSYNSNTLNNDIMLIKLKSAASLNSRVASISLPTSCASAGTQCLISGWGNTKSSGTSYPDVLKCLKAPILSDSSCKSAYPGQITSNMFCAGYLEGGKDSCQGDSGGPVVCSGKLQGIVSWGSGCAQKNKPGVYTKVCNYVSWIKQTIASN
The experiment in a line: Compound was tested for inhibition activity against bovine trypsin.

The target of the next test is Prothrombin (Homo sapiens, UniProt P00734). The experiment in a line: Compound was tested for inhibition activity against human thrombin (FIIa).
The target of another test is Coagulation factor X (Homo sapiens, UniProt P00742). The experiment in a line: Compound was tested for inhibition activity against Coagulation factor X.
Chain of Coagulation factor X (P00742 41-179 limits assumed): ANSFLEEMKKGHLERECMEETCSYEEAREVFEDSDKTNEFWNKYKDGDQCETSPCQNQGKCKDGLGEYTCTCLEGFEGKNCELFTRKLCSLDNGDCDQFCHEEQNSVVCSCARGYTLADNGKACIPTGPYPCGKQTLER
Chain of Coagulation factor X (P00742 235-488 limits assumed): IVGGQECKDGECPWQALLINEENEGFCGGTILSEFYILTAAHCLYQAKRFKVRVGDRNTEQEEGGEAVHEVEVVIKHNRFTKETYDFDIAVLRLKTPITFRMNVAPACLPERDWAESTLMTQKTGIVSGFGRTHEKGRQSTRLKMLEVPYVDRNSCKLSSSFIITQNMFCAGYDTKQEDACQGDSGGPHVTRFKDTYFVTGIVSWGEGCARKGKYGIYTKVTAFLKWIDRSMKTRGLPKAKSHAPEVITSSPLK

Drawing on ChEMBL document CHEMBL1132209, “Design, synthesis, and activity of 2,6-diphenoxypyridine-derived factor Xa inhibitors” (J Med Chem, 1999), this text covers Ki for 31 molecules.

The term Ki denotes the equilibrium dissociation constant of an inhibitor or competing ligand from its target. Low readings indicate higher affinity, high ones lower affinity.

For the molecule `N=C(N)c1cccc(Oc2ccc(NC(=O)c3ccccc3)c(Oc3cccc(C(=N)N)c3)n2)c1`, the inhibitory constant (Ki) at Serine protease 1 stood at 260 nM; at Prothrombin it was 3400 nM; at Coagulation factor X, 120 nM.

For `CNC(=O)c1ccc(Oc2cccc(C(=N)N)c2)nc1Oc1cccc(C(=N)N)c1`, the inhibition constant (Ki) is 1400 nM at Serine protease 1, > 5000 nM at Prothrombin and 230 nM on Coagulation factor X.

As to `N=C(N)c1cccc(Oc2cc(C(N)=O)cc(Oc3cccc(C(=N)N)c3)n2)c1`, the Ki at Serine protease 1 was found to be 780 nM; at Prothrombin, 6000 nM; at Coagulation factor X it was 42 nM.

Consider `N=C(N)c1cccc(Oc2ccc(NC(=O)NCC(N)=O)c(Oc3cccc(C(=N)N)c3)n2)c1`, for which the inhibition constant (Ki) on Serine protease 1 was 280 nM; on Prothrombin it was > 5000 nM; at Coagulation factor X, 110 nM.

For the molecule `N=C(N)c1cccc(Oc2ccc(NC(=O)Nc3ccccc3)c(Oc3cccc(C(=N)N)c3)n2)c1`, the Ki at Serine protease 1 was 100 nM; at Prothrombin it was 3400 nM; on Coagulation factor X, 62 nM.

In the case of `N=C(N)c1cccc(Oc2ccnc(Oc3cccc(C(=N)N)c3)n2)c1`, the inhibition constant (Ki) at Serine protease 1 is 760 nM; on Prothrombin, > 5000 nM; at Coagulation factor X it was 120 nM.

Turning to `N=C(N)c1cccc(Oc2cncc(Oc3cccc(C(=N)N)c3)n2)c1`, the inhibition constant (Ki) is 970 nM at Serine protease 1, > 5000 nM at Prothrombin and 51 nM on Coagulation factor X.

Regarding `N=C(N)c1cccc(Oc2ccc(C(=O)O)c(Oc3cccc(C(=N)N)c3)n2)c1`, the inhibitory constant (Ki) is 2200 nM at Serine protease 1, > 100000 nM on Prothrombin and 95 nM on Coagulation factor X.

As to `N=C(N)c1cccc(Oc2ccc(N)c(Oc3cccc(C(=N)N)c3)n2)c1`, the Ki on Serine protease 1 is 1300 nM; at Prothrombin it was > 5000 nM; on Coagulation factor X it was 53 nM.

For `N=C(N)c1ccccc1Oc1cccc(Oc2ccccc2C(=N)N)n1`, the Ki on Coagulation factor X is > 5000 nM.

On to `CCOC(=O)c1ccc(Oc2cccc(C(=N)N)c2)nc1Oc1cccc(C(=N)N)c1`, for which the figures for the Ki at Serine protease 1, at Prothrombin and on Coagulation factor X were 920 nM, > 5000 nM and 190 nM, respectively.

Take `N=C(N)c1ccc(Oc2cccc(Oc3ccc(C(=N)N)cc3)c2)cc1`: the Ki was determined as 1000 nM on Serine protease 1, 4900 nM on Prothrombin and 970 nM on Coagulation factor X.

For the molecule `N=C(N)c1cccc(Oc2ccc(C(N)=O)c(Oc3cccc(C(=N)N)c3)n2)c1`, the inhibition constant (Ki) is 1200 nM on Serine protease 1, > 5000 nM on Prothrombin and 600 nM at Coagulation factor X.

Consider `N=C(N)c1ccc(/C=C2\CCCC/C(=C\c3ccc(C(=N)N)cc3)C2=O)cc1`, for which the Ki at Serine protease 1 was 33 nM; on Prothrombin, 530 nM; on Coagulation factor X it was 0.66 nM.

As for `CNC(=O)c1cc(Oc2cccc(C(=N)N)c2)nc(Oc2cccc(C(=N)N)c2)c1`, the inhibition constant Ki at Serine protease 1 worked out at 750 nM; on Prothrombin, 4200 nM; on Coagulation factor X it was 60 nM.

`CS(=O)(=O)Nc1ccc(Oc2cccc(C(=N)N)c2)nc1Oc1cccc(C(=N)N)c1`: the Ki is 1900 nM at Serine protease 1, > 5000 nM on Prothrombin and 130 nM at Coagulation factor X.

For `N=C(N)c1ccc(Oc2cc(Oc3ccc(C(=N)N)cc3)c(Cl)cc2Cl)cc1`, the Ki on Serine protease 1 was 1800 nM; at Prothrombin, 2500 nM; at Coagulation factor X, 1100 nM.

As for `CCOC(=O)c1cc(Oc2cccc(C(=N)N)c2)nc(Oc2cccc(C(=N)N)c2)c1`, the Ki at Serine protease 1 was 800 nM; on Prothrombin, 11000 nM; at Coagulation factor X, 34 nM.

For the molecule `COc1c(F)c(Oc2cccc(C(=N)N)c2)nc(Oc2cccc(C(=N)N)c2)c1F`, the values for the Ki on Serine protease 1, at Prothrombin and on Coagulation factor X were 1100 nM, > 5000 nM and 23 nM, respectively.

As to `CC(=O)Nc1ccc(Oc2cccc(C(=N)N)c2)nc1Oc1cccc(C(=N)N)c1`, the inhibition constant Ki on Serine protease 1 is 1200 nM; at Prothrombin it was > 5000 nM; on Coagulation factor X, 52 nM.

As for `N=C(N)c1cccc(Oc2ccc(C(=O)NCC(N)=O)c(Oc3cccc(C(=N)N)c3)n2)c1`, the inhibition constant (Ki) on Serine protease 1 was 2000 nM; on Prothrombin, > 5000 nM; on Coagulation factor X, 690 nM.

As to `N=C(N)c1cccc(Oc2cc(Oc3ccccc3C(=N)N)ccc2N)c1`, the inhibitory constant (Ki) on Coagulation factor X was 1100 nM.

Regarding `Cc1c(F)c(N(C)c2cccc(C(=N)N)c2)nc(N(C)c2cccc(C(=N)N)c2)c1F`, the Ki on Serine protease 1 worked out at 360 nM; on Prothrombin it was 360 nM; on Coagulation factor X, 98 nM.

With `N=C(N)c1cccc(Oc2ccc(C(F)(F)F)c(Oc3cccc(C(=N)N)c3)n2)c1`, the inhibition constant Ki is 780 nM at Serine protease 1, > 5000 nM on Prothrombin and 110 nM on Coagulation factor X.

As to `Cc1c(F)c(Nc2cccc(C(=N)N)c2)nc(Oc2cccc(C(=N)N)c2)c1F`, the inhibition constant (Ki) on Serine protease 1 is 3100 nM; on Prothrombin it was > 5000 nM; on Coagulation factor X it was 660 nM.

Take `N=C(N)c1cccc(Oc2c[nH]c(=O)c(Oc3cccc(C(=N)N)c3)n2)c1`: the Ki at Serine protease 1 was 760 nM; on Prothrombin, > 5000 nM; at Coagulation factor X it was 190 nM.

At Coagulation factor X, `N=C(N)c1cccc(Oc2cc(Oc3ccccc3C(=N)N)ccc2[N+](=O)[O-])c1` yielded a Ki of 300 nM.

`CNC(=O)Nc1ccc(Oc2cccc(C(=N)N)c2)nc1Oc1cccc(C(=N)N)c1`: the Ki at Serine protease 1 is 840 nM; on Prothrombin it was > 5000 nM; at Coagulation factor X, 59 nM.

On to `N=C(N)c1ccc(Oc2cccc(Oc3ccccc3C(=N)N)n2)cc1`, for which the inhibition constant (Ki) at Serine protease 1 was determined as 1900 nM; on Prothrombin, 1200 nM; on Coagulation factor X, 130 nM.

In the case of `Cc1c(F)c(Oc2cccc(C(=N)N)c2)nc(N(C)c2cccc(C(=N)N)c2)c1F`, the results for the inhibition constant Ki on Serine protease 1, on Prothrombin and on Coagulation factor X were 690 nM, 1900 nM and 12 nM, respectively.

For the molecule `CN(C)C(=O)c1ccc(Oc2cccc(C(=N)N)c2)nc1Oc1cccc(C(=N)N)c1`, the figures for the Ki at Serine protease 1, at Prothrombin and on Coagulation factor X were 780 nM, > 5000 nM and 32 nM, respectively.
